Reference: patent publication US10550111B2, “Pyrimidine urea compound containing isoxazolines and use thereof” (SHENYANG SINOCHEM AGROCHEMICALS R&D CO., LTD, priority 2014, dated 2020)

Columns and labels:
Type in all cases: in vivo
[1] = tested on: Setaria glauca (L.) Beauv.; test: Bioassay of herbicidal activity in greenhouse (further screening)
Method: (§1) Determination of herbicidal activity of compounds of the present invention against weeds was carried out by the following procedures:
(§2) Seeds of monocotyledonous and dicotyledonous weeds were sown in nutrition soil in paper pot (7 cm diameter), covered with soil in 1 cm and grown in the greenhouse under good growth conditions (temperature, atmospheric humidity, water supply). The compounds of the present invention as emulsifiable concentrate, were applied in pre-emergence and post-emergence treatment by track sprayer (Engineer Research Ltd., pressure 1.95 kg/cm^2, volume 500 L/hm^2, track speed 1.48 km/h). Pre-emergence treatment was conducted after seeding 24 hours and post-emergence treatment was done when the respective weeds reached predetermined leaf stage (grass weed 2- to 3-leaf stage, broad-leaf weed 2- to 4-leaf stage), the state of growth of the respective weeds were visually observed to determine the growth inhibition rate (%) in accordance with the following evaluation standard.
(§3) Growth inhibition rate (%): 0=no discernible action: 100=all weeds dead or not emerged.

[2] = tested on: Abutilon theophrasti Medic.; test: as above
Method: as §1, §2, §3

Zinnia elegans Jacq. = test: as above
Method: as §1, §2, §3

[3] = tested on: Echinochloa crus-galli (L.) Beauv.; test: as above
Method: as §1, §2, §3

[4] = tested on: broad-leaf weeds and grass weeds; test: General screening of herbicidal activity in greenhouse; details: 1000 g a.i./hm^2;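 also: 0 means no visible effect and 100 means all weeds dead or not emerged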
Method: as §1, §2, §3

Compound: Cn1c(C(F)(F)F)cc(=O)n(-c2cc(C3=NOC(C)(C(=O)OCC4CCCO4)C3)c(Cl)cc2F)c1=O (stereo not shown) [Compound 398]
- Growth inhibition rate, Post-emergence treatment, Setaria glauca (L.) Beauv. ([1]; dose 7.5 g a.i./hm^2): 55%
- Growth inhibition rate, Post-emergence treatment, Setaria glauca (L.) Beauv. ([1]; dose 15 g a.i./hm^2): 95%
- Growth inhibition rate, Post-emergence treatment, Setaria glauca (L.) Beauv. ([1]; dose 30.0 g a.i./hm^2): 100%
- Growth inhibition rate, Post-emergence treatment, Setaria glauca (L.) Beauv. ([1]; dose 60.0 g a.i./hm^2): 100%
- Growth inhibition rate, Post-emergence treatment, Setaria glauca (L.) Beauv. ([1]; dose 120.0 g a.i./hm^2): 100%
- Growth inhibition rate, Post-emergence treatment, Abutilon theophrasti Medic. ([2]; dose 7.5 g a.i./hm^2): 98%
- Growth inhibition rate, Post-emergence treatment, Abutilon theophrasti Medic. ([2]; dose 15 g a.i./hm^2): 98%
- Growth inhibition rate, Post-emergence treatment, Abutilon theophrasti Medic. ([2]; dose 30.0 g a.i./hm^2): 100%
- Growth inhibition rate, Post-emergence treatment, Abutilon theophrasti Medic. ([2]; dose 60.0 g a.i./hm^2): 100%
- Growth inhibition rate, Post-emergence treatment, Abutilon theophrasti Medic. ([2]; dose 120.0 g a.i./hm^2): 100%
- Growth inhibition rate, Post-emergence treatment, Zinnia elegans Jacq. (Zinnia elegans Jacq.; dose 7.5 g a.i./hm^2): 65%
- Growth inhibition rate, Post-emergence treatment, Zinnia elegans Jacq. (Zinnia elegans Jacq.; dose 15 g a.i./hm^2): 90%
- Growth inhibition rate, Post-emergence treatment, Zinnia elegans Jacq. (Zinnia elegans Jacq.; dose 30.0 g a.i./hm^2): 100%
- Growth inhibition rate, Post-emergence treatment, Zinnia elegans Jacq. (Zinnia elegans Jacq.; dose 60.0 g a.i./hm^2): 100%
- Growth inhibition rate, Post-emergence treatment, Zinnia elegans Jacq. (Zinnia elegans Jacq.; dose 120.0 g a.i./hm^2): 100%
- Growth inhibition rate, Post-emergence treatment, Echinochloa crus-galli (L.) Beauv. ([3]; dose 7.5 g a.i./hm^2): 65%
- Growth inhibition rate, Post-emergence treatment, Echinochloa crus-galli (L.) Beauv. ([3]; dose 15 g a.i./hm^2): 75%
- Growth inhibition rate, Post-emergence treatment, Echinochloa crus-galli (L.) Beauv. ([3]; dose 30.0 g a.i./hm^2): 95%
- Growth inhibition rate, Post-emergence treatment, Echinochloa crus-galli (L.) Beauv. ([3]; dose 60.0 g a.i./hm^2): 100%
- Growth inhibition rate, Post-emergence treatment, Echinochloa crus-galli (L.) Beauv. ([3]; dose 120.0 g a.i./hm^2): 100%
- pre-emergence and post-emergence herbicidal activity against broad-leaf weeds and grass weeds [4]: good

Compound: CSCCC(=O)OCC1(C)CC(c2cc(-n3c(=O)cc(C(F)(F)F)n(C)c3=O)c(F)cc2Cl)=NO1 (stereo not shown) [Compound 54]
- Growth inhibition rate, Post-emergence treatment, Setaria glauca (L.) Beauv. ([1]; dose 37.5 g a.i./hm^2): 35%
- Growth inhibition rate, Post-emergence treatment, Setaria glauca (L.) Beauv. ([1]; dose 150 g a.i./hm^2): 70%
- Growth inhibition rate, Post-emergence treatment, Setaria glauca (L.) Beauv. ([1]; dose 600 g a.i./hm^2): 98%
- Growth inhibition rate, Pre-emergence treatment, Setaria glauca (L.) Beauv. ([1]; dose 37.5 g a.i./hm^2): 0%
- Growth inhibition rate, Pre-emergence treatment, Setaria glauca (L.) Beauv. ([1]; dose 150 g a.i./hm^2): 20%
- Growth inhibition rate, Pre-emergence treatment, Setaria glauca (L.) Beauv. ([1]; dose 600 g a.i./hm^2): 60%
- Growth inhibition rate, Post-emergence treatment, Abutilon theophrasti Medic. ([2]; dose 37.5 g a.i./hm^2): 100%
- Growth inhibition rate, Post-emergence treatment, Abutilon theophrasti Medic. ([2]; dose 150 g a.i./hm^2): 100%
- Growth inhibition rate, Post-emergence treatment, Abutilon theophrasti Medic. ([2]; dose 600 g a.i./hm^2): 100%
- Growth inhibition rate, Pre-emergence treatment, Abutilon theophrasti Medic. ([2]; dose 37.5 g a.i./hm^2): 0%
- Growth inhibition rate, Pre-emergence treatment, Abutilon theophrasti Medic. ([2]; dose 150 g a.i./hm^2): 35%
- Growth inhibition rate, Pre-emergence treatment, Abutilon theophrasti Medic. ([2]; dose 600 g a.i./hm^2): 90%
- Growth inhibition rate, Post-emergence treatment, Zinnia elegans Jacq. (Zinnia elegans Jacq.; dose 37.5 g a.i./hm^2): 90%
- Growth inhibition rate, Post-emergence treatment, Zinnia elegans Jacq. (Zinnia elegans Jacq.; dose 150 g a.i./hm^2): 100%
- Growth inhibition rate, Post-emergence treatment, Zinnia elegans Jacq. (Zinnia elegans Jacq.; dose 600 g a.i./hm^2): 100%
- Growth inhibition rate, Pre-emergence treatment, Zinnia elegans Jacq. (Zinnia elegans Jacq.; dose 37.5 g a.i./hm^2): 0%
- Growth inhibition rate, Pre-emergence treatment, Zinnia elegans Jacq. (Zinnia elegans Jacq.; dose 150 g a.i./hm^2): 20%
- Growth inhibition rate, Pre-emergence treatment, Zinnia elegans Jacq. (Zinnia elegans Jacq.; dose 600 g a.i./hm^2): 60%
- Growth inhibition rate, Post-emergence treatment, Echinochloa crus-galli (L.) Beauv. ([3]; dose 37.5 g a.i./hm^2): 10%
- Growth inhibition rate, Post-emergence treatment, Echinochloa crus-galli (L.) Beauv. ([3]; dose 150 g a.i./hm^2): 20%
- Growth inhibition rate, Post-emergence treatment, Echinochloa crus-galli (L.) Beauv. ([3]; dose 600 g a.i./hm^2): 75%
- Growth inhibition rate, Pre-emergence treatment, Echinochloa crus-galli (L.) Beauv. ([3]; dose 37.5 g a.i./hm^2): 0%
- Growth inhibition rate, Pre-emergence treatment, Echinochloa crus-galli (L.) Beauv. ([3]; dose 150 g a.i./hm^2): 15%
- Growth inhibition rate, Pre-emergence treatment, Echinochloa crus-galli (L.) Beauv. ([3]; dose 600 g a.i./hm^2): 80%
- pre-emergence and post-emergence herbicidal activity against broad-leaf weeds and grass weeds [4]: good
